# Experiment: gradient 5% acetonitrile 3 min, to 50% in 2 min, to 85% in 15 min, held 3 min, 100 µL/min
# Settings: column: Zorbax Extend-C18 2.1 x 50 mm; eluents: water / acetonitrile, 0.1% formic acid
# Outline: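 Pure standards were analyzed in mixtures of ~100 molecules using HPLC coupled to a quadrupole time-of-flight mass spectrometer, in both positive and negative ionization mode. Separation used a Zorbax Extend-C18 column (2.1 × 50 mm, 1.8 μm) at 100 μL/min, with water and acetonitrile each containing 0.1% formic acid. Dead and dwell volumes were 40 μL and 900 μL, and data were collected over 3 months. Retention time was read from computationally picked adduct peaks, each inspected manually.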
row,Compound,RP-LC retention time [s]
1,COc1ccc(C(=O)NCc2c(C)noc2C)c(OC)c1,693
2,Fc1ccc(OCCc2noc(C3CCCN3)n2)cc1 (centres undefined),631
3,Nc1ccc2c(c1)N=[N+]([O-])c1cc(N)ccc1C2,628
4,Fc1ccc(-c2ccc(CNc3ncn[nH]3)o2)cc1Cl,692
5,Cc1cc(NC(=O)C2CCCN(S(=O)(=O)c3cc(-c4noc(C5CCCC5)n4)cs3)C2)no1 (centres undefined),1110
6,COc1ccc(N2CCN(C(=O)C3CCN(c4nc(NC(C)=O)ns4)CC3)CC2)cc1,618
7,CN(C)c1ccc(C(=O)NC2CCN(c3cc(-c4cccs4)[nH]n3)C2)cc1 (centres undefined),721
8,COc1cc(OC)cc(-c2noc(Cn3cnc4c(oc5ccccc54)c3=O)n2)c1,944
9,COc1ccc(-c2nc(-c3ccc4oc(C)nc4c3)no2)cc1OC,978
10,O=C1CCN(C(=O)C2CCN(C(=O)CCC3CCCC3)CC2)CCCCCCN1,725
11,Cc1cc(C)nc(NS(=O)(=O)c2ccc(NC(=O)c3ccc(Cl)s3)cc2)n1,755
12,CCc1ccc2nc(C)cc(C(=O)NC3CC3)c2c1,605
13,Cc1nc2cc(N3CCC(C(=O)Nc4ccc(Cl)cc4)CC3)cnc2nc1C,790
14,Cc1nc(C)c(C(=O)Nc2nc(-c3cccc(Cl)c3)c(C)s2)s1,1070
15,O=C(CSc1nnc2ccc(-c3cccc([N+](=O)[O-])c3)nn12)c1cccs1,774
16,O=C(CCC1CCCC1)NCCC1CCN(C(=O)Nc2ccc(F)cc2)CC1,887
17,CCc1c(C2CCN(C(=O)c3ccc4c(c3)OCO4)CC2)noc1N,696
18,CCC(=O)Nc1ccc(OCc2cc(C(=O)NC3CCCCC3)no2)cc1,840
19,COc1ccc(NC(=O)Nc2c(-c3ccc(F)cc3)nc3ccccn23)cc1F,668
20,O=C(NCc1nc(-c2ccc(-c3csc(C4CC4)n3)cc2)no1)c1ccccc1,1030
21,CCN1CCCC1CN(CC(=O)N1CCNCC1)S(=O)(=O)c1c(C)cc(C)cc1C (centres undefined),588

row,Compound,RP-LC retention time [s]
1,O=C(CN1C(=O)C2CCCCN2c2ccc(C(=O)N3CCCC3)cc21)NCC1COCCO1 (centres undefined),627
2,Cc1ccccc1-c1nnc(CSc2nnc(NC(=O)C3CC3)s2)o1,822
3,Cc1cnc(C2CCC2)n1CCNC(=O)c1cc(C2CC2)[nH]n1,586
4,Fc1ccc(-c2nc3cnc(Br)cn3c2Nc2ccc3c(c2)OCCO3)cc1,961
5,COc1ccc(NC(=O)C2c3cc(OC)c(OC)cc3C(=O)N(C)C2c2cccnc2)c(OC)c1 (centres undefined),655
6,O=C(NCc1cccs1)c1cccc2cnccc12,589
7,CCn1cc(-c2nc(C(=O)Nc3cc(F)ccc3C)cs2)c2cccnc21,899
8,CC(C)N1C(=O)c2cccnc2Sc2cc(NC(=O)c3cccc(F)c3)ccc21,901
9,Cc1ccc(-c2nc(C3CC(=O)N(c4ccc(Cl)cc4)C3)no2)cc1C (centres undefined),1200
10,Cc1ccc(-c2nnc(Cc3nc(-c4ccc(OC(C)C)cc4)no3)o2)cc1F,1190
11,Cc1[nH]c(=O)[nH]c(=O)c1/C=C/C(=O)NC(CO)CC(C)C (centres undefined),592
12,COCCCNC(=O)N1CC(c2nc(C)no2)C2(CCOCC2)C1 (centres undefined),598
13,COc1ccc(-c2nc(-c3ccc4c(c3)oc(=O)n4C(C)C)no2)cc1OC,1070
14,N#Cc1ccccc1CN1CCC2(CCC2O)CC1 (centres undefined),565
15,COC(=O)c1c(NC(C)c2cccnc2)c2cccc(Cl)c2[nH]c1=O (centres undefined),572
16,Cc1ccnc(N2CCCC(C(=O)Nc3cc(Cl)ccc3C)C2)n1 (centres undefined),846
17,c1ccc(-c2nc3cc(-c4noc(-c5ccccn5)n4)ccc3o2)cc1,1120
18,Fc1cccc(-c2nc(Cn3ccnc3)no2)c1,577
19,COc1ccc(C2CC(=O)c3cnc(N4CCN(c5ccccn5)CC4)nc3C2)c(OC)c1 (centres undefined),713
20,Cc1nc(CNC(=O)C2CCN(C(=O)Nc3ccc(Br)cc3F)CC2)cs1,699

# Other lines, results leading:
row,RP-LC retention time [s],Compound
1,772,Cc1cc(-c2ccc(S(=O)(=O)N3CCC(C(=O)N4CCCCCC4)CC3)o2)n[nH]1
2,704,COCCNC(=O)N1c2ccccc2NC2=C(C(=O)CC(C)(C)C2)C1c1ccc(OC)cc1 (centres undefined)
3,803,CC(C)n1nc2c(S(=O)(=O)N3CCCCC3)cccn2c1=O
4,854,Cc1ccc(CNC(=O)C2CCN(S(C)(=O)=O)c3ccccc3O2)cc1 (centres undefined)
5,1100,CCOc1ccccc1NC(=O)N1CCCC1c1nc(-c2ccc(F)cc2F)no1 (centres undefined)
6,856,CSc1ccc(NC(=O)N2C[C@@H]3C[C@H]2C[C@@H]3NS(=O)(=O)c2ccccc2)cc1
7,946,Cc1ccc2ncn(C3CCN(S(=O)(=O)c4ccc(F)c(F)c4)CC3)c(=O)c2c1
8,881,COc1cccc(NS(=O)(=O)c2ccc(-c3nnc(C4CCC4)o3)o2)c1
9,1060,Cc1cc(C(=O)N2CC(Oc3ccc(-c4nc(-c5ccccc5)no4)cc3)C2)n(C)n1
10,1050,CC1CCN(c2cc(-n3cnc(C(=O)N(C)Cc4ccccc4)c3)ncn2)CC1
11,738,CC(C)NC(=O)C1CCCN(c2nc3ncn(CC(=O)Nc4cccc(Cl)c4)c(=O)c3s2)C1 (centres undefined)
12,716,O=C(O)CN1CCCc2nc(-c3ccccc3)ncc2C1=O
13,715,Cc1nc(-c2cc3ccccc3nc2N2CCN(Cc3ccccc3)CC2)no1
14,1100,CCOC(=O)c1sc(NC(=O)c2cccc([N+](=O)[O-])c2)nc1-c1ccccc1
15,663,O=C1NCCCn2cc(S(=O)(=O)Nc3cccc(F)c3)cc21
16,853,O=C(NCC1CCN(C(=O)Oc2ccccc2)CC1)C(=O)Nc1ccc2c(c1)OCCO2
17,732,COc1ccc(NC(=O)c2cnc3c(c2)c(=O)n(C)c(=O)n3C)cc1
18,800,COc1ccc(CCNC(=O)CN2C(=O)CCc3cc(Br)ccc32)cc1OC
19,739,CCc1cc(-c2csc(S(=O)(=O)NCC3CCN(Cc4ccc(Cl)cc4)CC3)c2)on1
20,808,CN(CC1CCCO1)S(=O)(=O)c1ccc(C(=O)N2CCc3ccccc3C2)cc1 (centres undefined)
21,792,Nc1cc(C2CCN(S(=O)(=O)c3cccc(Cl)c3)CC2)no1
22,1260,Cc1ccc(-c2nnc(-c3nc(N4CCCCC4C)c4ccccc4n3)o2)cc1 (centres undefined)
23,676,Cc1ccc(CNC(=O)N2CCCC(Cn3cnc4cccnc43)C2)cc1 (centres undefined)
24,673,CCCCC(=O)Nc1ccc2nc(N3CCN(c4ccc(OC)cc4)CC3)cc(C(=O)O)c2c1

row,RP-LC retention time [s],Compound
1,1140,Cc1ccc(F)cc1NC(=O)Cn1nc(N2CCCCCC2)c2ccccc2c1=O
2,898,COc1ccc2cc(C(=O)Nc3ccccc3)[nH]c2c1
3,1000,COc1ccc(OC)c(CNC(=O)C2CCCN(c3nccnc3Sc3ccccc3)C2)c1 (centres undefined)
4,650,CNC(=O)[C@@H]1C[C@H](Oc2ccccc2)CN1C(=O)c1n[nH]c(=O)c2ccccc12
5,778,CC(C)CCNC(=O)C1(C)Cn2nc(C(=O)NC(C)c3ccccc3)cc2C(=O)N1C (centres undefined)
6,834,Cc1ccc(CNc2c(-c3ccc(C)c(C)c3)nc3ncccn23)cc1
7,914,CCCCn1nc2c(S(=O)(=O)N3CCc4ccccc4C3)cccn2c1=O
8,911,Cc1cc(C)cc(NC(=O)N2CCC(n3cnc4c(C)cccc4c3=O)CC2)c1
9,700,Cc1nc(-c2ccccc2)cc2nn(CC(=O)N3CCOCC3)c(=O)n12
10,849,CCOc1ccccc1N1C=C(C(=O)OC)S(=O)(=O)c2ccccc21
11,985,CCN1C(=O)c2ccccc2Oc2ccc(C(=O)NCC(C)c3ccccc3)cc21 (centres undefined)
12,791,CC(NC(=O)CCCN1C(=O)CCn2nc(-c3cn(C)c4ccccc34)cc21)c1ccccc1 (centres undefined)
13,650,CCC(C)NC(=O)NCCn1c(-c2ccc(C)cc2)nc2cccnc21 (centres undefined)
14,640,Cc1cc(OCC(=O)NCc2ccccc2Br)nc(N2CCCC2)n1
15,916,O=C(C1CCC1)N1CCc2sc(S(=O)(=O)NCc3ccc(Cl)cc3)cc2C1
16,630,CCOc1ccc(NC(=O)N2CCC(n3cnnc3C3CC3)C2)cc1 (centres undefined)
17,1120,CCOc1ccccc1-c1nn2c(CSc3ccccc3)nnc2s1
18,754,CCNc1nc(C)cc(N2CCN(S(=O)(=O)c3cccc(C(F)(F)F)c3)CC2)n1
19,1200,CCc1nc(-c2cccc(C)c2)c(-c2ccnc(NC(=O)c3ccccc3)c2)s1
20,670,CCCNC(=O)C1CCN(c2ccc(SCC(=O)Nc3ccc(F)cc3F)nn2)CC1
21,670,CN1C(=O)c2cccn2CC1CNS(=O)(=O)Cc1ccccc1F (centres undefined)
22,823,O=C(CN1CCN(Cc2cccc(Cl)c2)C1=O)NCCc1cccs1
23,982,COc1cccc(CNC(=O)C2(C)CCCN(C(=O)Nc3cccc(Cl)c3C)C2)c1 (centres undefined)
24,569,O=C(Nc1nccnc1C(=O)NCCN1CCOCC1)c1ccccc1
